One data set relates to red blood cells. The experiment in a line: Hemolysis of red blood cells. Format: cell-based. As to conditions: in the nanoparticle form or when dissolved in DMSO. The source says: It was hypothesized that the tween/ethanol/PEG/Vitamin E/Intralipid solvent-based excipients and probable drug precipitation were responsible for the infusion reactions and not tegavivint itself.

Data set [1] can be described thus: Pharmacokinetics after slow intravenous bolus in female Sprague-Dawley rats. The class given is in vivo. As to conditions: 10 mg/kg slow intravenous bolus; for half-life: iv, 10 mg/kg. How it is done:
The objective of this study was to investigate the pharmacokinetics of tegavivint following a single intravenous slow bolus administration of tegavivint to female Sprague-Dawley rats.
Dose Preparation and Administration The stock formulation (25 mg/mL) was provided. Accurately, 600 μL of dose formulation (Stock, 25 mg/mL) was transferred to labeled glass container. To this, 2.4 mL of 5% dextrose solution was added, vortex mixed and sonicated to obtain homogeneous suspension of 5 mg/mL strength. Animals were dosed underfed condition. Rats were administered a single dose of 10 mg/kg of tegavivint by slow intravenous bolus (over 1.5 min) jugular vein catheter using 1 mL BD syringe guided with 23 G blunt needle at a dose volume of 2 mL/kg. Syringes used for dosing were weighed before and after dose administration in order to calculate the actual dose administered.
Sample Collection and Processing Blood samples were collected at 0.083, 0.25, 0.5, 1, 2, 4, 6, 8, 12 and 24 h post dose. At each time point, approximately, 0.25 mL of blood was withdrawn from jugular vein of the cannulated rat and transferred to a labeled microfuge tube containing 200 mM K2EDTA (20 μL per mL of blood). Following sampling, equal volume of heparinized saline was replaced into the catheter. The blood samples were kept on wet ice at all times immediately after collection and the plasma was separated by centrifugation at 5000 g for 5 minutes at 4±2° C. The plasma samples were separated within 1 h of scheduled time and stored below −60° C. until bioanalysis.
Bioanalysis Bioanalysis was performed using fit-for-purpose LC-MS/MS method for the quantification of BC2059 in rat plasma samples. The calibration curve (CC) for the method consisted of at least 6 non-zero calibration standards along with a blank and blank with internal standard samples with a lower limit of quantification (LLOQ) of 0.050 μg/mL. Study samples were analyzed along with three sets of quality control samples (9 QC samples; low, medium and high QC samples in triplicate).
Pharmacokinetic Data Analysis The pharmacokinetic parameters for tegavivint were calculated using the non-compartmental analysis tool ([…]) of the validated Phoenix® WinNonlin® software (version 6.3). The area under the concentration time curve (AUClast and AUCinf) was calculated by linear trapezoidal rule. The CO (back extrapolated concentration at time zero) was estimated following intravenous bolus dose administration by back-extrapolating the first two concentration values. The total plasma clearance (CL) and volume of distribution at steady-state (Vss) were estimated values. The elimination rate constant value (k) was calculated by linear regression of the log-linear terminal phase of the concentration-time profile using at least 3 declining concentrations in terminal phase with a correlation coefficient of >0.8. The terminal half-life value (T½) was calculated using the equation 0.693/k. The alpha and beta half-lifes were calculated and reported.

Data set [2] deals with bleomycin-induced idiopathic pulmonary fibrosis (IPF). The experiment in a line: Bleomycin-induced IPF mouse model: total lung collagen content (Hydroxyproline Assay). Format: in vivo, C57BL/6 male mice. How it is done:
The purpose of this experiment was to investigate tegavivint nanosuspension in a mouse model of bleomycin-induced idiopathic pulmonary fibrosis (IPF). Test articles were as follows:
Murine model of pulmonary fibrosis was induced by intratracheally (IT) injected bleomycin (APP Pharmaceuticals, Schaumburg, IL). One dose of 0.025 U bleomycin dissolved in 50 microliters of Saline 0.9%, or PBS as control was administered to each animal on day 0.
Tegavivint nanosuspension was applied to Group 3 in the form of aerosols, through the method of whole body exposure. The mice were placed inside a plastic box. This box was sealed and connected by one of its sides to the outlet of the nebulizer device, and on the other side to a system of closed water. The whole procedure was carried out inside the fume hood of the animal room. In each treatment session, 5 ml of 25 mg/ml Tegavivint (125 mg) was nebulized over 15 min to each group of 4-5 mice in the chamber. […]
On Day 21 all animals were sacrificed and lungs were harvested. Total lung collagen content was evaluated using the Hydroxyproline Assay as previously described (Morales-Nebreda L, et al. AJRCMB 2015). […] The resulting pellet was resuspended in 1 ml of 0.5 M NaOH and Sirius red staining was quantified spectrophotometrically (540 nm) using a colorimetric plate reader (Bio-Rad, Hercules, CA).

A short description of data set [3]: Tegavivint solubility in water and organic solvents. Format: physicochemical. How it is done:
In organic solvents, tegavivint has solubilities as shown: DMSO (334 μg/mL), ethanol (260 μg/mL), methanol (299 μg/mL), acetone (1 mcg/mL), dichloromethane:ethanol (1:4) (1 mg/mL).

The nature of data set [4]: Aerosol particle size distribution by cascade impactor. The class given is physicochemical. As to conditions: Covaris and Ball Mill (60 min); 0.1% Tween 80; 15.06 mg/mL; Hospitak. How it is done: Particle size distribution (PSD) of the test article was measured at the breathing zone using an In Tox, mercer style cascade impactor.
Particle size for test atmospheres was measured using an In-Tox Cascade impactor for suspensions prepared with 0.1% Tween 80 in ultrapure water, and the sponsor provided poloxamer suspension using a compressed air nebulizer.

Setting [5] is: female, Sprague-Dawley, plasma, rat.

The text below walks through data of US12246010B2, “Formulations of tegavivint and related compounds” (Iterion Therapeutics, Inc., priority 2018, dated 2025).

Values after ≈ are worked out from the molar mass of the structure shown. Values joined by “and” are separate entries in the source; they are usually repeats but may differ in a detail not shown here. Identical values can stand only once. Like-named read-outs stand apart in the source and are kept apart here.

The term AUC(0-inf) denotes the area under the concentration-time curve extrapolated to infinity. A low value points to less exposure. The AUC(0-t) is the area under the concentration-time curve up to a stated or last time point. Lower therefore signals low exposure. The term MRT last denotes the average time that molecules of a dose stay in the body. By clearance is commonly meant a measure of how efficiently the substance is removed, as volume per time. Read a low clearance as inefficient removal. One may read the solubility as the dissolved amount per volume that the medium holds. For the compound `C[C@@H]1C[C@H](C)CN(S(=O)(=O)c2ccc3c(c2)C(=NO)c2cc(S(=O)(=O)N4C[C@H](C)C[C@H](C)C4)ccc2C3=NO)C1` [BC2059, tegavivint], in the data set with red blood cells, the “hemolysis of red blood cells” value is “does not cause hemolysis”. For the same compound, the “CL lower than normal rat liver blood flow of 55 mL/min/kg” value in data set [1] was “about 5.5 fold”. For the same compound, the AUC(0-inf) in data set [1] (setting [5]) is 17200 ng·h/mL. The same compound returned an AUC(0-t) in data set [1] (setting [5]) of 14600 ng·h/mL. The MRT last in data set [1] (setting [5]) turned out to be 4.07 h. In addition, the C0 in data set [1] (female, Sprague-Dawley, plasma, rat, back extrapolated) was 62.2 µg/mL. In data set [1] (female, Sprague-Dawley, plasma, rat, mean, n=4), this compound had a clearance of 9.92 mL/min/kg. The Vd in data set [1] (female, Sprague-Dawley, plasma, rat, mean, n=4, read-out: Vss) was determined as 6.54 L/kg. Also, the half-life in data set [1] (female, Sprague-Dawley, rat, plasma, regression points 0.5, 1 and 2 h, read-out: T1/2 Alpha (converted)) was 0.546 h; in data set [1] (female, Sprague-Dawley, rat, plasma, regression points 6, 8, 12 and 24 h, read-out: T1/2 Beta (converted)), 13.8 h. In addition, in data set [1] (rat), the “Vss greater than normal body water of 0.7 L/kg” value was roughly 9.34 fold. In data set [2] (Group 3, inhaled), the “effect on total lung collagen content after bleomycin injury” value is “reversed this change”. In addition, in data set [2] (Group 3: IT bleomycin Day 0, 5 ml of 25 mg/ml tegavivint aerosol BID Day 5-21, Day 21, individual animals), the Hydroxyproline is 70.016 μg/half lung and 39.44 μg/half lung and 45.68 μg/half lung and 58.784 μg/half lung and 64.296 μg/half lung. Further, the solubility in data set [3] (DMSO, organic solvent or mixture, read-out: solubility in DMSO) was 334 µg/mL (≈ 567 µM); in data set [3] (acetone, organic solvent or mixture, read-out: solubility in acetone), 1 µg/mL (≈ 1.7 µM); in data set [3] (dichloromethane:ethanol (1:4), organic solvent or mixture, read-out: solubility in dichloromethane:ethanol (1:4)), 1000 µg/mL (≈ 1700 µM); in data set [3] (ethanol, organic solvent or mixture, read-out: solubility in ethanol), 260 µg/mL (≈ 442 µM); in data set [3] (methanol, organic solvent or mixture, read-out: solubility in methanol) it was 299 µg/mL (≈ 508 µM); in data set [3] (water, aqueous buffer, across the pH range of 2 to 10, read-out: solubility in water), less than 0.25 µg/mL. The compound further gave a GSD in data set [4] of 2.21. In data set [4], this compound came in with an MMAD of 1.26 µm.
